Measurements from patent US20060014723A1, “Anti-parasitic uses of borinic acid complexes” (priority 2004, published 2006).
≈ marks a conversion by molar mass, not a printed value.

How the values were obtained:
[1] = tested on: T. b. rhodesiense STIB 900; assay: African sleeping sickness in vitro screening model (Alamar Blue); assay type: cell-based, Trypanosoma brucei rhodesiense; conditions: for IC50: Trypanosoma brucei
Method: Bloodstream from trypomastigotes of the strains (a) and (c) are maintained in Minimal Essential Medium (MEM) with Earle's salts supplemented according to Baltz, et al., (EMBO J. 4:1273-1277, 1985) with 25 mM N-2-hydroxyethylpiperazine-N′-2-ethane-sulphonic acid (HEPES), 1 g/L additional glucose, 1% MEM non-essential amino acids (100×), 0.2 mM 2-mercaptoethanol, 2 mM sodium pyruvate, 0.1 mM hypoxanthine and 15% heat-inactivated horse serum.
All cultures and assays are conducted at 37° C. under an atmosphere of 5% CO2 in air.
(§1) After use the stocks are kept at −20° C. For the assays, the compound is further diluted in serum-free culture medium and finally to the appropriate concentration in complete medium without hypoxanthine.
Assays are performed in 96-well microtiter plates, each well containing 100 μL of culture medium with 8×10^3 bloodstream forms with or without a serial drug dilution. The highest concentration for the test compounds is 90 μg/mL. Seven 3-fold drug dilutions are used, covering a range from 90 μg/mL to 0.123 μg/mL. Each drug is tested in duplicate. Active compounds are tested twice for confirmation. The final result is the mean of the four individual IC50 values. After 72 hrs of incubation, the plates are inspected under an inverted microscope to assure growth of the controls and sterile conditions.
(§2) Ten μL of Alamar Blue (12.5 mg resazurin dissolved in 100 mL distilled water) are now added to each well and the plates are incubated for another 2 hours. Then the plates are read with a Spectramax GEMINI XS microplate fluorometer (Molecular Devices Cooperation, Sunnyvale, Calif., USA) using an excitation wavelength of 536 nm and an emission wave length of 588 nm.
IC50 values are determined using the microplate reader software Softmax Pro (Molecular Devices Cooperation, Sunnyvale, Calif., USA).

[2] = tested on: Leishmania donovani strain MHOM/ET1671L82; assay: Leishmaniasis in vitro screening model (axenic amastigotes, Alamar Blue); assay type: cell-based; conditions: for IC50: Leishmania donovani, read-out: L. donovani IC50
Method: The Leishmania donovani strain MHOM/ET1671L82 (obtained from Dr. S. Croft, London School of Hygiene and Tropical Medicine) is used. The strain is maintained in the Syrian Golden hamster. Amastigotes are collected from the spleen of an infected hamster. Amastigotes are grown in axenic culture at 37° C. in SM medium (Cunningham I., J. Protozoal. 24:325-329, 1977) at pH 5.4 supplemented with 10% heat-inactivated fetal bovine serum (FBS) under an atmosphere of 5% CO2 in air.
(§3) After use the stocks are kept at −20° C. For the assays, the compound is further diluted to the appropriate concentration using complete medium.
Assays are performed in 96-well flat-bottom microtiter plates (Costar, Corning Inc.), each well containing 100 μl of culture medium with 105 amastigotes from axenic culture with or without a serial drug dilution. Concentration of amastigotes is determined in a CASY cell analyzing system (Scharfe System, Reutlingen, Germany). Before the amastigotes are counted, the parasite culture is passed twice through a 22-gauge needle to break up clusters of amastigotes.
The highest concentration for the test compounds is 90 μg/mL. Seven 3-fold dilutions are used, covering a range from […]. Each drug is tested in duplicate. Active compounds are tested twice for confirmation. After 72 hours of incubation, the plates are inspected under an inverted microscope to assure growth of the controls and sterile conditions.
as §2, with “then” for “now”, “wave length” for “wavelength”
Data are analyzed using the microplate reader software Softmax Pro (Molecular Devices Cooperation, Sunnyvale, Calif., USA). Decrease of fluorescence (i.e. inhibition) is expressed as percentage of the fluorescence of control cultures and plotted against the drug concentrations. The IC50 value is calculated from the sigmoidal inhibition curve by the software program.

P. falciparum K1 = assay: Malaria in vitro screening model (3H-hypoxanthine incorporation); assay type: cell-based, Plasmodium falciparum; conditions: for IC50: Plasmodium falciparum, K1
Method: […] P. falciparum K1 is used in this study. K1 (a clone originating from Thailand) is resistant to chloroquine and pyrimethamine. The strains are maintained in RPMI 1640 medium with 0.36 mM hypoxanthine, supplemented with 25 mM N 2-hydroxyethyipiperazine-N-2-ethane-sulphonic acid (HEPES), 25 mM NaHCO3, neomycin (100 U/mL) and 5 g/L of ALBUMAX® II (lipid-rich bovine serum albumin, GIBCO, Grand Island, N.Y., USA), together with 5% washed human A+ erythrocytes. All cultures and assays are conducted at 37° C. under an atmosphere of 4% CO2, 3% O2 and 93% N2. Cultures are kept in incubation chambers filled with the gas mixture. Subcultures are diluted to a parasitemia of between 0.1 and 0.5% and the medium is changed daily.
Antimalarial activity is assessed using an adaptation of the procedures described by Desjardins et al. (Antimicrob. Agents Chemother. 16:710-718, 1979), and Matile and Pink (In: Lefkovits, I. and Pernis, B. (Eds.), Immunological Methods Vol. IV, Academic Press, San Diego, pp. 221-234, 1990).
as §1, with “Stock drug solutions are prepared in 100% dimethylsulfoxide (DMSO) at 10 mg/mL, and heated or sonicated if necessary to dissolve the sample. After” for “After”, “use,” for “use”
Assays are performed in sterile 96-well microtiter plates, each well containing 200 μl of parasite culture (0.15% parasitemia, 2.5% hematocrit) with or without serial drug solutions. Seven 2-fold dilutions are used, covering a range from […] to 0.078 μg/mL. For active compounds the highest concentration is lowered (e.g., to […]); for plant extracts the highest concentration is increased to 50 μg/mL. […] After 48 hours of incubation at 37° C., 0.5 μCi ^3H-hypoxanthine is added to each well. Cultures are incubated for a further 24 h before being harvested onto glass-fiber filters and washed with distilled water. The radioactivity is counted using a Betaplate liquid scintillation counter (Wallac, Zurich, Switzerland). The results are recorded as counts per minute per well at each drug concentration and expressed as percentage of the untreated controls. IC50 values are calculated from the sigmoidal inhibition curves using Microsoft EXCEL.

[3] = tested on: Trypanosoma cruzi Tulahuen C2C4 strain; assay: Chagas disease in vitro screening model (beta-galactosidase strain in L-6 cells); assay type: cell-based; conditions: for IC50: Trypanosoma cruzi, TULAHUEN, L6, read-out: T. cruzi IC50
Method: Trypanosoma cruzi Tulahuen C2C4 strain, containing the β-galactosidase (Lac Z) gene (Buckner et al., Antimicrob. Agents Chemother 40:2592-2597, 1996) is used for this study.
The infective amastigote and trypomastigote stages are cultivated in L-6 cells (a rat skeletal myoblast cell line) in RPMI 1640 medium supplemented with 2 mM L-glutamine and 10% heat-inactivated fetal bovine serum in 12.5 cm^2 tissue culture flasks. Amastigotes develop intracellularly, differentiate into trypomastigotes, and leave the host cell. These trypomastigotes infect new L-6 cells and are the stages used to initiate an infection in the assay. All cultures and assays are conducted at 37° C. under an atmosphere of 5% CO2 in air.
as §3
Assays are performed in sterile 96-well microtiter plates, each well containing 100 μl medium with 2×10^3 L-6 cells. After 24 hours, […] of a trypanosome suspension containing 5×10^3 trypomastigote bloodstream forms from culture are added to the wells. Forty-eight hours later, the medium is removed from the wells and replaced by […] fresh medium, with or without a serial drug dilution. At this point the L-6 cells should be infected with amastigotes and no free trypomastigotes should be in the medium. Seven 3-fold drug dilutions are used, covering a range from 90 μg/mL to 0.123 μg/mL. Each drug is tested in duplicate. Active compounds are tested twice for confirmation. After 96 hours of incubation the plates are inspected under an inverted microscope to assure growth of the controls and sterility.
Then the substrate CPRG/Nonidet (50 μl) is added to all wells. A colour reaction will become visible within 2-6 hours and can be read photometrically at 540 nm. Data are transferred into a graphics program (e.g., EXCEL), sigmoidal inhibition curves determined and IC50 values calculated.

Structure (SMILES) | IC50 [1] [µg/mL] | IC50 [2] [µg/mL] | IC50 (P. falciparum K1) [µg/mL] | IC50 [3] [µg/mL] | T. b. rhodesiense IC50 [1] [µg/mL] | L. donovani IC50 [2] [µg/mL] | P. falciparum IC50 (P. falciparum K1) [µg/mL] | T. cruzi IC50 [3] [µg/mL]
N#Cc1ccc(B(Oc2cccc3cccnc23)c2ccc(F)cc2)cc1 [Compound 22, (4-Cyanophenyl)(4-fluorophenyl)borinic acid quinolin-8-yl ester] | 0.325 (≈ 0.923 µM) | 0.34 (≈ 0.965 µM) | 1.46 (≈ 4.15 µM) | 0.845 (≈ 2.4 µM) |  |  |  | 
Fc1cc(F)cc(B(Oc2cccc3cccnc23)c2ccc(Cl)cc2)c1 [Compound 44, (4-Chlorophenyl)(3,5-difluorophenyl)borinic acid quinolin-8-yl ester] | 0.275 (≈ 0.724 µM) | 0.5 (≈ 1.32 µM) | 1.87 (≈ 4.93 µM) | 0.71 (≈ 1.87 µM) |  |  |  | 
Fc1ccc(B(Oc2cccc3cccnc23)c2ccc(Cl)cc2)cc1 [Compound 15, (4-chlorophenyl)(4-fluorophenyl) borinic acid quinolin-8-yl ester] | 0.28 (≈ 0.774 µM) | 0.5 (≈ 1.38 µM) | 1.82 (≈ 5.03 µM) | 0.906 (≈ 2.51 µM) |  |  |  | 
CC1(C)COC(c2cccc(B(Oc3cccc4cccnc34)C3CC3)c2)=N1 [Compound 20, Cyclopropyl[3-(4,5-dihydro-4,4-dimethyloxazol-2yl)phenyl]borinic acid quinolin-8-yl ester] | 0.245 (≈ 0.662 µM) | 0.55 (≈ 1.49 µM) | 1.84 (≈ 4.97 µM) | 0.86 (≈ 2.32 µM) |  |  |  | 
N#Cc1ccc(B(Oc2cccc3cccnc23)c2cc(F)cc(C(F)(F)F)c2)cc1 [Compound 122] |  |  |  |  | 0.4 | 0.45 | 4.577 | 4.55
Cc1ccc2c(Cl)cc(Cl)c(OB(c3ccc(Cl)cc3)c3ccc(Cl)cc3)c2n1 [Compound 80] |  |  |  |  | 1.06 | 0.12 | 1.71 | 1.315
O=C(O)CCCOc1cccnc1C(=O)OB(c1cccc(Cl)c1)c1cccc(Cl)c1 [Compound 75] |  |  |  |  | 31.1 | 0.61 | 0.494 | 8.9
Fc1cccc(B(Oc2cccc3cccnc23)c2ccc(Cl)c(C(F)(F)F)c2)c1 [Compound 115] |  |  |  |  | 0.465 | 0.59 | 3.077 | 3.6
Cc1ccc(B(Oc2cccc3cccnc23)c2ccccc2)cc1Cl [Compound 10, (3-Chloro-4-methylphenyl)phenylborinic acid quinolin-8-yl ester] | 0.52 (≈ 1.45 µM) | 0.38 (≈ 1.06 µM) | 1.5 (≈ 4.19 µM) | 4.2 (≈ 11.7 µM) |  |  |  | 
Fc1cccc(B(Oc2cccc3cccnc23)c2ccc(Cl)cc2)c1F [Compound 42, (4-Chlorophenyl)(2,3-difluorophenyl)borinic acid quinolin-8-yl ester] | 0.47 (≈ 1.24 µM) | 0.43 (≈ 1.13 µM) | 1.83 (≈ 4.82 µM) | 1.04 (≈ 2.75 µM) |  |  |  | 
Fc1cccc(C=CBOc2cccc3cccnc23)c1 [Compound 39, (3-Fluorophenyl)vinyl borinic acid quinolin-8-yl ester] | 0.201 (≈ 0.725 µM) | 0.34 (≈ 1.23 µM) | 122 (≈ 440 µM) | 1.41 (≈ 5.09 µM) |  |  |  | 
N#Cc1cccc(B(Oc2cccc3cccnc23)c2cc(F)ccc2F)c1 [Compound 32, (3-Cyanophenyl)(2,5-difluorophenyl)borinic acid quinolin-8-yl ester] | 0.41 (≈ 1.11 µM) | 0.41 (≈ 1.11 µM) | 1.82 (≈ 4.92 µM) | 0.73 (≈ 1.97 µM) |  |  |  | 
Fc1cccc(B(Oc2cccc3cccnc23)c2cccc(Cl)c2)c1 [Compound 17, (3-Chlorophenyl)(3-fluorophenyl)borinic acid quinolin-8-yl ester] | 0.18 (≈ 0.498 µM) | 0.42 (≈ 1.16 µM) | 1.77 (≈ 4.89 µM) | 1.06 (≈ 2.95 µM) |  |  |  | 
Fc1ccc(B(Oc2cccc3cccnc23)c2ccc(F)c(Cl)c2)cc1Cl [Compound 12, Bis(3-chloro-4-fluoro-phenyl)borinic acid quinolin-8-yl ester] | 0.52 (≈ 1.26 µM) | 0.68 (≈ 1.64 µM) | 1.5 (≈ 3.62 µM) | 5.6 (≈ 13.5 µM) |  |  |  | 
COc1cc(B(Oc2cccc3cccnc23)c2cccc(F)c2)ccc1Cl [Compound 45, (4-Chloro-3-methoxyphenyl)(3-fluorophenyl)borinic acid quinolin-8-yl ester] | 0.48 (≈ 1.23 µM) | 0.5 (≈ 1.28 µM) | 1.84 (≈ 4.7 µM) | 1.15 (≈ 2.92 µM) |  |  |  | 
CN(C)Cc1ccc(B(Oc2cccc3cccnc23)c2cccc(C3=NC(C)(C)CO3)c2)cc1 [Compound 126] |  |  |  |  | 0.595 | 0.45 | 4.746 | 5.05
C=CB(Oc1c(N(C)C)cc(Cl)c2cccnc12)c1ccnc(Cl)c1 [Compound 83] |  |  |  |  | 0.715 | 1.1 | 0.979 | 0.77
